US20150290231A1, “COMPOSITION FOR INHIBITING CELLULAR SENESCENCE COMPRISING QUERCETIN-3-O-beta-D-GLUCURONIDE” (INDUSTRY-ACADEMIC COOPERATION FOUNDATION, YEUNGNAM …, priority 2012, published 2015)

Columns and labels:
[1] = tested on: human umbilical vein endothelial cells (HUVECs); assay: Replicative senescence, SA-β-gal activity staining, old HUVECs; format: cell-based; conditions: old HUVECs (PD>50); increasing Q3GA concentration; 3 days; concentration-dependent
Procedure: FIG. 7 represents the effect of Q3GA on replicative senescence of HUVECs. […] Cellular senescence was assessed by SA-β-gal activity staining. Representative pictures of 3 independent experiments are shown. Percentages of SA-β-gal positive cells were measured. Values are means±SDs from 3 independent experiments. O, old cells; D, dimethyl sulfoxide; N, 5 mM N-acetylcysteine; R, 500 nM rapamycin. *p<0.05 or **p<0.05 vs DMSO.
(§1) HDFs in DMEM with 10% FBS and 1% antibiotics (penicillin 10,000 unit/mL and streptomycin […]) were seeded at 1×10^5 cells per 100 mm culture plate and incubated at 37° C. in 5% CO2 humidified air. When subcultures reached 80-90% confluence, serial passaging was performed by trypsinization. HUVECs in EGM-2 media were cultured under the same conditions. The number of population doublings (PDs) was monitored for further experiments. PD was calculated using the geometric equation: PD=log 2F/log 2I (F, final cell number; I, initial cell number). HDFs in PD<35 and HUVECs in PD<30 were used for adriamycin-induced cellular senescence. HDFs in PD>75 and HUVECs in PD>50 were used as old cells under replicative senescence.
The effect of single component on cellular senescence was examined by SA-β-gal activity staining. Each single component was treated in a 24-well culture plate or a 12-well culture plate for 3 days, and then the cells were washed with phosphate buffer. […]

[2] = tested on: p53; assay: Western blot of p53 in adriamycin-treated HDFs; format: cell-based, human; conditions: Q3GA 1 h prior to adriamycin 500 nM 4 h, concentration-dependent
Procedure: (§2) FIG. 3 represents the effect of Q3GA on the expression levels of p53, pS6K, and p21 proteins in HDFs and HUVECs treated with adriamycin. Cells were treated with the indicated concentrations of Q3GA for 1 h prior to adriamycin treatment and incubated for 4 h. Proteins from cells were extracted and separated. The expression levels of each protein were analyzed by Western blotting. Representative data of 3 independent experiments are shown. NT, not treated with adrimycin; ADR, adriamcyin; C, control; D, dimethyl sulfoxide; N, 5 mM N-acetylcysteine; R, 500 nM rapamycin.
(§3) Each cells were divided into a 60 mm culture dish to the cell number of 1×10^5, and then cultured at 37° C. in a 5% CO2 incubator. […] The amount of the protein in the solution was quantified by bicinchoninic acid (BCA) method (Pierce Biotechnology Inc., Rockford Ill., USA) by using bovine serum albumin as a standard protein.
(§4) Protein (30 μg) was separated by being electrophoresed through a 10% SDS-polyacrylamide gel. […] The membrane was washed five times with TTBS for every 5 min, and then the amounts of p53, p21 and pS6 were measured by using an enhanced chemiluminescence solution. The amount of the specific protein reacted with each antibody was measured by using a LAS-3000 imaging system (Fujifilm Corp., Stanford, Conn., USA). […]

[3] = tested on: p21; assay: Western blot of p21 in adriamycin-treated HUVECs; format: cell-based, human; conditions: Q3GA 1 h prior to adriamycin 500 nM 4 h, concentration-dependent
Procedure: as §2, §3, §4

[4] = tested on: human umbilical vein endothelial cells (HUVECs); assay: Intracellular ROS (DCF fluorescence, flow cytometry) in adriamycin-treated HUVECs; format: cell-based; conditions: Q3GA 10 μg/ml, 3 days
Procedure: (§5) FIG. 5 represents the effect of Q3GA on intracellular ROS levels increased by adriamycin treatment in HUVECs. Young cells (1.5×10^5) treated with or without adrimcyin were seeded in 60 mm culture dishes and incubated for 24 h. Following treatment of cells with 10 µg/mL of Q3GA, 0.5% DMSO, 5 mM NAC, or 500 nM rapamcyin for 3 days, cells were loaded with 250 µM H2DCFDA for 20 min. The DCF fluorescence intensity of each population of 10,000 cells was measured by flow cytometry. Representative data from three independent experiments are shown. Median fluorescence intensities were obtained and compared. Values are means±SDs from 3 independent experiments. NT, not treated with adrimycin; ADR, adriamcyin; C, control; D, dimethyl sulfoxide; N, 5 mM N-acetylcysteine; R, 500 nM rapamycin. *p<0.05 vs DMSO.
(§6) Each cells were divided into a 100 mm culture dish to the cell number of 1.5×10^5, and then cultured at 37° C. in a 5% CO2 incubator for 3 days. The cells were washed two times with DMEM medium containing antibiotics, and then adriamycin 500 nM was treated thereto for 4 hours. The cells were separated by treating trypsin-EDTA solution (2.5%), and then divided again into a 60 mm culture dish to the cell number of 1×10^5 followed by culturing at 37° C. in a 5% CO2 incubator. […] ROS was measured by using BD FACS Canto II flow cytometry (BD Biosciences, San Jose, Calif.).

[5] = tested on: p53; assay: Western blot of p53 in adriamycin-treated HUVECs; format: cell-based, human; conditions: Q3GA 1 h prior to adriamycin 500 nM 4 h, concentration-dependent
Procedure: as §2, §3, §4

[6] = tested on: human dermal fibroblasts (HDFs); assay: Adriamycin-induced cellular senescence, SA-β-gal activity staining, HDFs; format: cell-based; conditions: 3 days
Procedure: (§7) FIG. 1 represents the effect of quercetin-3-O-β-D-glucuronide (Q3GA) on adriamycin-induced cellular senescence in human dermal fibroblasts (HDFs). Cells treated with 500 nM adriamycin for 4 h were seeded at 500 cells/well in 96 well plates. After treatment with increasing concentrations of Q3GA, cells were incubated for 3 days and cellular senescence assessed by SA-β-gal activity staining. SA-β-gal activity staining (Left) and percentages of SA-β-gal positive cells in HDFs (Right). Representative SA-β-gal staining pictures of 3 independent experiments are shown. Values are means±SDs from 3 independent experiments measured in triplicates. C, control; D, dimethyl sulfoxide; N, 5 mM N-acetylcysteine; R, 500 nM rapamycin. *p<0.05 or **p<0.01 vs DMSO.
as §1, with “HDFs in PD>75 and HUVECs in PD>50 were used as old cells under replicative senescence.” left out

[7] = tested on: human dermal fibroblasts (HDFs); assay: Replicative senescence, SA-β-gal activity staining, old HDFs; format: cell-based; conditions: old HDFs (PD>75); increasing Q3GA concentration; 3 days; concentration-dependent
Procedure: FIG. 6 represents the effect of Q3GA on replicative senescence of HDFs. Old cells (3×10^4/well) were seeded in 6 well plates and incubated with or without 10 µg/mL of Q3GA for 3 days. Cellular senescence was assessed by SA-β-gal activity staining. Representative pictures of 3 independent experiments are shown. Percentages of SA-β-gal positive cells were measured. Values are means±SDs from 3 independent experiments. O, old cells; D, dimethyl sulfoxide; N, 5 mM N-acetylcysteine; R, 500 nM rapamycin. *p<0.05 or **p<0.05 vs DMSO.
as §1
The effect of single component on cellular senescence was examined by SA-β-gal activity staining. […]

[8] = tested on: p21; assay: Western blot of p21 in adriamycin-treated HDFs; format: cell-based, human; conditions: Q3GA 1 h prior to adriamycin 500 nM 4 h, concentration-dependent
Procedure: as §2, §3, §4

[9] = tested on: human dermal fibroblasts (HDFs); assay: Intracellular ROS (DCF fluorescence, flow cytometry) in adriamycin-treated HDFs; format: cell-based; conditions: Q3GA 10 μg/ml, 3 days
Procedure: as §5, with “FIG. 4” for “FIG. 5”, “in HDFs.” for “in HUVECs.”
as §6

[10] = tested on: human umbilical vein endothelial cells (HUVECs); assay: Adriamycin-induced cellular senescence, SA-β-gal activity staining, HUVECs; format: cell-based; conditions: 3 days
Procedure: as §7, with “FIG. 2” for “FIG. 1”, “human umbilical vein endothelial cells (HUVECs).” for “human dermal fibroblasts (HDFs).”, “at 1,000” for “at 500”, “in HUVECs” for “in HDFs”
as §1, with “HDFs in PD<35 and HUVECs in PD<30 were used for adriamycin-induced cellular senescence. HDFs in PD>75 and HUVECs in PD>50 were used as old cells under replicative senescence.” left out

[11] = Q3GA 10 μg/ml, adriamycin 500 nM 4 h
[12] = increasing concentrations of Q3GA

## O=C(O)[C@H]1O[C@@H](Oc2c(-c3ccc(O)c(O)c3)oc3cc(O)cc(O)c3c2=O)[C@H](O)[C@@H](O)[C@@H]1O [Q3GA, quercetin-3-O-β-D-glucuronide]
[1]
  SA-β-gal activity under replicative senescence: decreased SA-β-gal activity
[2]
  level of p53 protein increased by adriamycin: reduced
[3]
  level of p21 protein increased by adriamycin: reduced
[4]
  intracellular ROS levels augmented by adriamycin (DCF fluorescence intensity): decreased intracellular ROS levels
[5]
  level of p53 protein increased by adriamycin: reduced
[6]; [11]
  SA-β-gal activity staining increased by adriamycin: reduced by Q3GA treatment
[6]; [12]
  SA-β-gal activity increased by adriamycin, concentration dependence: reduced as Q3GA concentration was increased
[7]
  SA-β-gal activity under replicative senescence: decreased SA-β-gal activity
[8]
  level of p21 protein increased by adriamycin: reduced
[9]
  intracellular ROS levels augmented by adriamycin (DCF fluorescence intensity): decreased intracellular ROS levels
[10]; [11]
  SA-β-gal activity staining increased by adriamycin: reduced by Q3GA treatment
[10]; [12]
  SA-β-gal activity increased by adriamycin, concentration dependence: reduced as Q3GA concentration was increased
